Reference: patent publication US4375542A, “Kijanimicin antibiotics and derivatives thereof” (Schering Corporation, priority 1980, dated 1983)

Legend:
Peptostreptococcus = assay: in vitro activity against anaerobic bacteria: Peptostreptococcus; format: cell-based
Source text: (§1) Kijanimicin is also active against strains of anaerobic bacteria other than P. acnes. For example, when tested in vitro, the antibiotic was active against strains of Peptococcus species, Peptostreptococcus and E. lentum.

[1] = room temperature at pH 2-3
[2] = anti-inflammatory activity, art recognized test procedures
[3] = acute toxicity (LD50) and therapeutic index; format: in vivo
Plasmodium berghei = assay: antimalarial activity in infected CF1 mice; format: in vivo, Plasmodium berghei; CF1 mice; conditions: therapy commenced one day after infection
P-388 leukemia = assay: in vivo anti-tumor test, P-388 leukemia in mice (standard National Cancer Institute test)
Procedure: Anti-tumor activity was determined by the standard National Cancer Institute test which was published in Cancer Chemothr. Rep. 3:1-103 1972.
In the test 10^6 cells per mouse of P-388 leukemia (bleomycin sensitive) is administered intraperitoneally on day 1. The test compound is serially diluted (1/10, 1/100, etc.) and each dilution is administered to a mouse from day 1 to day 9. Animals dying on or before day 5 are listed as toxic deaths. Controls are run using bleomycin and olivomycin A. The results are calculated by the formula in which MST=medium survival time in days;
MST ^T /C=MST-T/MST-Control×100.

Peptococcus species = assay: in vitro activity against anaerobic bacteria: Peptococcus species; format: cell-based
Source text: as §1

E. lentum = assay: in vitro activity against anaerobic bacteria: E. lentum; format: cell-based
Source text: as §1

For `COC(=O)N[C@H]1[C@@H](C)O[C@@H](O[C@H]2C/C=C(\C)[C@@H]3C=C[C@@H]4[C@@H](O[C@H]5C[C@@H](O[C@H]6CC(O[C@H]7C[C@H](O)[C@@H](O)[C@H](C)O7)C(O[C@@H]7C[C@@H](O)[C@@H](OC)[C@H](C)O7)[C@H](C)O6)[C@@H](O)[C@H](C)O5)[C@@H](C)C[C@H](C)[C@H]4[C@]3(C)/C(O)=C3\C(=O)O[C@]4(C[C@@H](C)C(CO)=C[C@H]4/C=C/2C)C3=O)C[C@]1(C)[N+](=O)[O-]` (some centres unmarked) [Kijanimicin], the “in vitro activity against Peptostreptococcus” value (Peptostreptococcus) was “active”, the loss of activity [1] was “loses activity rapidly” and the anti-inflammatory effect [2] was “exhibits an anti-inflammatory effect”. The “oral LD50” value ([3]; oral) was “greater than 1000 mg/kg”, the “therapeutic index (LD50 / PD50), oral” value ([3]; oral) was “about 10” and the “subcutaneous LD50” value ([3]; subcutaneous) was “greater than 1000 mg/kg”. For the same compound, the “therapeutic index (LD50 / PD50), subcutaneous” value ([3]; subcutaneous) was “about 10”, the “antiparasitic activity, Plasmodium berghei” value (Plasmodium berghei) was “exhibits antiparasitic activity” and the “anti-tumor activity against P-388 leukemia” value (P-388 leukemia) was “exhibits anti-tumor activity”. The “in vitro activity against Peptococcus species” value (Peptococcus species) was “active” and the “in vitro activity against E. lentum” value (E. lentum) was “active”.
